In patent publication US20260376293A1, “METHODS FOR STUDYING GPR158 PHARMACOLOGY AND IDENTIFICATION OF ITS LIGANDS” (UNIVERSITY OF FLORIDA RESEARCH FOUNDATION, INCORPORATED, priority 2022, published 2026):

Target: T1, GPR158 (Homo sapiens, UniProt Q5T848)
T1 sequence (Q5T848 24-1215): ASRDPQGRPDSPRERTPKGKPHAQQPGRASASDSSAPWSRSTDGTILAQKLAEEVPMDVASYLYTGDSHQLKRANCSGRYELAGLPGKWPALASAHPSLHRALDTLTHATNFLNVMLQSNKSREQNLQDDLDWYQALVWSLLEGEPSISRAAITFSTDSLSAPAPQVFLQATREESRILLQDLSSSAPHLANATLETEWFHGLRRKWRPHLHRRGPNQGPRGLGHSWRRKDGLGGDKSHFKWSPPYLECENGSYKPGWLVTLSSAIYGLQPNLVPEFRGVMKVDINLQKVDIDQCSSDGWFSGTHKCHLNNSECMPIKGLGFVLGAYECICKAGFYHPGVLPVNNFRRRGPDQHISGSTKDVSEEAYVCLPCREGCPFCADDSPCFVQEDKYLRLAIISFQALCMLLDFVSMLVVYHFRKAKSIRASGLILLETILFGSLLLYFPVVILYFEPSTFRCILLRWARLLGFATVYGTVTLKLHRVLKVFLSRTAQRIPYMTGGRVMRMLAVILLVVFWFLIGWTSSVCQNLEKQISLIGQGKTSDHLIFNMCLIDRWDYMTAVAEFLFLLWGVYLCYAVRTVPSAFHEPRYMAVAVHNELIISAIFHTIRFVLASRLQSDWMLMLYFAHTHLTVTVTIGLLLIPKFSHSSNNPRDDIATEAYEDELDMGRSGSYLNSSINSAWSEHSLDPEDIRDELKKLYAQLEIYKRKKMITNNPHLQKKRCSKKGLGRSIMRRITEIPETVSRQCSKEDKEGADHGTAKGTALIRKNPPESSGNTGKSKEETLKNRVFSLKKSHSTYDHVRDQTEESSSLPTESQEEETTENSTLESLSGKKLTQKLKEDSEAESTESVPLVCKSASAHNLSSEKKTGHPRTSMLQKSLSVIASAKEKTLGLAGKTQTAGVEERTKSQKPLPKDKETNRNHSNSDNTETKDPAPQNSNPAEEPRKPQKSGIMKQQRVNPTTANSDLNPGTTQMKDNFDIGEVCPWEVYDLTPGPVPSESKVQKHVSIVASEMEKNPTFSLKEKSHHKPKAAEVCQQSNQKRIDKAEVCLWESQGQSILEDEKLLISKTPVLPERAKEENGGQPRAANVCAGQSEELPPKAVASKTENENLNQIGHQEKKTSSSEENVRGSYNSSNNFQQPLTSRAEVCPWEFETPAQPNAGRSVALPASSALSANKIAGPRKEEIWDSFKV
Experiment: Membrane radioligand saturation binding (Scatchard)
Design: expressed in transfected cells; host or cells: HEK293FT
Conditions: for Kd: Scatchard plot, HEK293 membranes expressing GPR158, n=4
Protocol: FIGS. 9A-9H. Direct interaction of glycine with GPR158 A) Schematics of assay design for detecting glycine binding to GPR158 by flow cytometry. Cells transfected with GPR158 are incubated with FITC-glycine and fluorescence labeling of cells is detected by flow cytometry. B) Representative flow cytometry histogram showing distribution of cellular populations after sorting. C) Quantification of FITC-glycine binding detected in flow cytometry binding experiments. The median of fluorescence (MFI) is quantified and plotted. Error bars are s.e.m. values, N=3, **p<0.01, ****p<0.0001, two-way ANOVA. D) Schematics of the radioligand binding assay. E) Quantification of ^3H-glycine binding to membrane expressing GPR158. Count Per minute (CPM) are measured and plotted. Data shown mean of 4 independent experiments error bars are s.e.m. values, n=4. […] Data shown mean of 4 independent experiments error bars are s.e.m. values, n=4. […] Control (thick line), GPR158 (thin line) I) Quantification of binding determined by fitting the integrated isotherm to an independent binding model.
Next, the inventors performed radioligand binding assays examining binding of [^3H]-labeled glycine to HEK293 cells expressing GPR158 (FIG. 7A). […] The inventors detected saturable [^3H]-glycine binding to membranes containing GPR158 is substantial excess over linear non-specific binding to membranes devoid of GPR158 (FIG. 9E). […]
Membrane binding assay was conducted using HEK293FT cells cultured in 6 well plates at the density of 10^6 per well and transfected with 2 μg of cDNA of GPR158 or empty pcDNA3.1+ for ctrl cells using Metafectene Pro. […] Finally, each filter was incubated in 5 ml of scintillation cocktail (Ecoscint XR, National Diagnostics), homogenized and radioactivity were measured using the liquid scintillation counter Hidex 600SL. The saturation binding curve, Scatchard plots and affinity KD and Bmax constants were calculated using Graphpad Prism 9.0 by fitting a non-linear regression binding saturation curve. […]

Kd [nM] | binding to membranes containing GPR158 (excess over linear non-specific binding to membranes devoid of GPR158) | SMILES
2620 ± 1820 | saturable | NCC(=O)O [^3H-glycine, [^3H]-glycine]
~3000 |  | NCC(=O)O [glycine]
